Where two headings read alike, the source gives them in different places.
Biological target: T1, human leukocyte elastase (Homo sapiens, UniProt P08246)
T1 sequence (P08246 30-267): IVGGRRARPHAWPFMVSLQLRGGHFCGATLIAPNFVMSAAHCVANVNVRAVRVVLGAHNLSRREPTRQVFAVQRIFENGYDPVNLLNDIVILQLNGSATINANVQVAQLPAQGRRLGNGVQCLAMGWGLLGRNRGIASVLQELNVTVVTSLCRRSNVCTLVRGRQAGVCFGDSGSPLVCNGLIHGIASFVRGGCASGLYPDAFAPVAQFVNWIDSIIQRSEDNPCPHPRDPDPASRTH
Assay: in vitro human leukocyte elastase inhibiting activity (fluorogenic substrate, method of JP-A-2-101017 with slight modification)
Format: biochemical
Description: Thus, methoxysuccinyl-Ala-Ala-Pro-Val-7-amido-4-methylcoumarin was used as a substrate for human leukocyte elastase and the 50% inhibitory concentration (IC₅₀) was measured. The enzymatic reaction was carried out in 0.2 M Tris-hydrochloride buffer (containing 0.02 M CaCl₂ and 0.005% Triton X-100) at pH 7.2. Each mixture of test compound solution and the enzyme solution was incubated at 25°C for 20 minutes.

[1] = 50% inhibitory concentration, substrate methoxysuccinyl-Ala-Ala-Pro-Val-7-amido-4-methylcoumarin, 0.2 M Tris-hydrochloride buffer (0.02 M CaCl2, 0.005% Triton X-100), pH 7.2, compound and enzyme incubated at 25°C for 20 minutes, read-out: IC50

Structure (SMILES)	IC50 [1]	IC50
O=C(Oc1cc(Cl)cc(Cl)c1)c1ccc(NC(=O)C(F)(F)F)cc1 [Compound 11, 3,5-dichlorophenyl 4-(trifluoroacetylamino)benzoate]	67 nM	–
N=C(N)Nc1ccc(C(=O)Oc2cc(Cl)cc(Cl)c2)cc1 [Compound 95, reference compound]	570 nM	–
CC(C)C(=O)Nc1ccc(C(=O)Oc2cc(Cl)cc(OS(=O)(=O)c3cccs3)c2)cc1 [Compound 87, 3-chloro-5-(2-thiophenesulfonyloxy)phenyl 4-(isobutanoylamino)benzoate]	19 nM	–
CC(C)C(=O)Nc1ccc(C(=O)Oc2c(Cl)cccc2Cl)cc1 [Compound 66, 2,6-dichlorophenyl 4-(isobutanoylamino)benzoate]	94 nM	–
CCCCCCCC(=O)Nc1ccc(C(=O)Oc2cc(Cl)cc(Cl)c2)cc1 [Compound 6, 3,5-dichlorophenyl 4-(octanoylamino)benzoate]	110 nM	–
CCCCCC(=O)Nc1ccc(C(=O)Oc2cc(Cl)cc(Cl)c2)cc1 [Compound 5, 3,5-dichlorophenyl 4-(hexanoylamino)benzoate]	37 nM	–
COC(=O)Nc1ccc(C(=O)Oc2cc(Cl)cc(Cl)c2)cc1 [Compound 33, 3,5-dichlorophenyl 4-(methoxycarbonylamino)benzoate]	26 nM	–
CCCCCNC(=O)Nc1ccc(C(=O)Oc2cc(Cl)cc(Cl)c2)cc1 [Compound 30, 3,5-dichlorophenyl 4-(3-pentylureido)benzoate]	190 nM	–
CC(C)C(=O)Nc1ccc(C(=O)Oc2cc(Cl)cc(Cl)c2Cl)cc1 [Compound 65, 2,3,5-trichlorophenyl 4-(isobutanoylamino)benzoate]	4.5 nM	–
CC1(C(=O)Nc2ccc(C(=O)Oc3cc(Cl)cc(Cl)c3)cc2)CC1 [Compound 1, 3,5-dichlorophenyl 4-(1-methylcyclopropanecarbonylamino)benzoate]	37 nM	–
CSC(C)C(=O)Nc1ccc(C(=O)Oc2cc(Cl)cc(Cl)c2)cc1 (stereo not drawn) [Compound 38, 3,5-dichlorophenyl 4-(2-methylthiopropanoylamino)benzoate]	18 nM	–
COc1cc(Cl)cc(OC(=O)c2ccc(NC(=O)C(C)C)cc2)c1 [Compound 90, 3-chloro-5-methoxyphenyl 4-(isobutanoylamino)benzoate]	11 nM	–
O=C(Oc1cc(Cl)cc(Cl)c1)c1ccc(NC(=O)C(F)(F)C(F)(F)F)cc1 [Compound 12, 3,5-dichlorophenyl 4-(pentafluoropropanoylamino)benzoate]	10 nM	–
CC(C)C(=O)Nc1ccc(C(=O)Oc2cc(Cl)cc(OCc3ccccc3)c2)cc1 [Compound 88, 3-benzyloxy-5-chlorophenyl 4-(isobutanoylamino)benzoate]	48 nM	–
CC(C)C(=O)Nc1ccc(C(=O)Oc2cc(Cl)cc(OC(=O)C3CC3)c2)cc1 [Compound 77, 3-chloro-5-(cyclopropanecarbonyloxy)phenyl 4-(isobutanoylamino)benzoate]	3.8 nM	–
CC(C)C(=O)Nc1ccc(C(=O)Oc2cc(Cl)cc(OS(=O)(=O)Cc3ccccc3)c2)cc1 [Compound 84, 3-chloro-5-(phenylmethanesulfonyloxy)phenyl 4-(isobutanoylamino)benzoate]	21 nM	–
CC(C)C(=O)Nc1ccc(C(=O)Oc2cccc(F)c2)cc1 [Compound 71, 3-fluorophenyl 4-(isobutanoylamino)benzoate]	310 nM	–
CCCCC(=O)Nc1ccc(C(=O)Oc2cc(Cl)cc(Cl)c2)cc1 [Compound 4, 3,5-dichlorophenyl 4-(pentanoylamino)benzoate]	23 nM	–
CC(C)C(=O)Nc1ccc(C(=O)Oc2cc(Cl)cc(OS(=O)(=O)c3ccccc3)c2)cc1 [Compound 85, 3-benzenesulfonyloxy-5-chlorophenyl 4-(isobutanoylamino)benzoate]	24 nM	–
CC(C)C(=O)Nc1ccc(C(=O)Oc2cc(C(F)(F)F)cc(C(F)(F)F)c2)cc1 [Compound 64]	220 nM	–
COC(=O)c1ccc([N+](=O)[O-])c(OC(=O)c2ccc(NC(=O)C(C)C)cc2)c1 [Compound 55, 3-methoxycarbonyl-6-nitrophenyl 4-(isobutanoylamino)benzoate]	3.6 nM	–
CC(C)C(=O)Nc1ccc(C(=O)Oc2cccc(C(F)(F)F)c2)cc1 [Compound 94, 3-trifluoromethylphenyl 4-(isobutanoylamino)benzoate]	240 nM	–
CC(C)C(=O)Nc1ccc(C(=O)Oc2cc(Cl)cc(Cl)c2)cc1 [Compound 7, 3,5-dichlorophenyl 4-(isobutanoylamino)benzoate]	4.1 nM	–
CC(C)CC(=O)Nc1ccc(C(=O)Oc2cc(Cl)cc(Cl)c2)cc1 [Compound 19, 3,5-dichlorophenyl 4-(3-methylbutanoylamino)benzoate]	96 nM	–

Structure (SMILES)	IC50 [1]	IC50
CC(C)C(=O)Nc1ccc(C(=O)Oc2cccc(O)c2[N+](=O)[O-])cc1 [Compound 49, 5-hydroxy-6-nitrophenyl 4-(isobutanoylamino)benzoate]	180 nM	–
CC(C)C(=O)Nc1ccc(C(=O)Oc2cc(Cl)ccc2C#N)cc1 [Compound 62, 3-chloro-6-cyanophenyl 4-(isobutanoylamino)benzoate]	1.3 nM	–
COC(=O)c1ccc(Cl)cc1OC(=O)c1ccc(NC(=O)C(C)C)cc1 [Compound 63, 3-chloro-6-(methoxycarbonyl)phenyl 4-(isobutanoylamino)benzoate]	97 nM	–
CC(C(=O)Nc1ccc(C(=O)Oc2cc(Cl)cc(Cl)c2)cc1)c1ccccc1 (stereo not drawn) [Compound 20, 3,5-dichlorophenyl 4-(2-methyl-2-phenylacetylamino)benzoate]	12 nM	–
CC(C)C(=O)Nc1ccc(C(=O)Oc2c(F)cccc2F)cc1 [Compound 69, 2,6-difluorophenyl 4-(isobutanoylamino)benzoate]	25 nM	–
CS(=O)(=O)Nc1ccc(C(=O)Oc2cc(Cl)cc(Cl)c2)cc1 [Compound 24, 3,5-dichlorophenyl 4-(methanesulfonylamino)benzoate]	98 nM	–
CCNC(=O)Nc1ccc(C(=O)Oc2cc(Cl)cc(Cl)c2)cc1 [Compound 27, 3,5-dichlorophenyl 4-(3-ethylureido)benzoate]	21 nM	–
CC(C)C(=O)Nc1ccc(C(=O)Oc2cc(F)cc(F)c2)cc1 [Compound 70, 3,5-difluorophenyl 4-(isobutanoylamino)benzoate]	26 nM	–
CC(=O)OC(=O)Nc1ccc(C(=O)Oc2cc(Cl)cc(Cl)c2)cc1 [Compound 36, 3,5-dichlorophenyl 4-(acetoxycarbonylamino)benzoate]	31 nM	–
CC(C)C(=O)Nc1ccc(C(=O)Oc2ccccc2[N+](=O)[O-])cc1 [Compound 48, 6-nitrophenyl 4-(isobutanoylamino)benzoate]	16 nM	–
CC(C)C(=O)Nc1ccc(C(=O)Oc2cc(Cl)cc(OS(C)(=O)=O)c2)cc1 [Compound 82, 3-chloro-5-(methanesulfonyloxy)phenyl 4-(isobutanoylamino)benzoate]	18 nM	–
CC(C)C(=O)Nc1ccc(C(=O)Oc2cc(Cl)cc(OC(=O)N(C)C)c2)cc1 [Compound 81, 3-chloro-5-(dimethylaminocarbonyloxy)phenyl 4-(isobutanoylamino)benzoate]	–	6.5 nM
CC(C)(C)OC(=O)Nc1ccc(C(=O)Oc2cc(C=O)ccc2[N+](=O)[O-])cc1 [Compound 47, 3-formyl-6-nitrophenyl 4-(tert-butoxycarbonylamino)benzoate]	3.8 nM	–
CC(C)C(=O)Nc1ccc(C(=O)Oc2ccccc2C#N)cc1 [Compound 61, 2-cyanophenyl 4-(isobutanoylamino)benzoate]	9.3 nM	–
CCCC(=O)Nc1ccc(C(=O)Oc2cc(Cl)cc(Cl)c2)cc1 [Compound 3, 3,5-dichlorophenyl 4-(butanoylamino)benzoate]	1.9 nM	–
CC(C)C(=O)Nc1ccc(C(=O)Oc2cc(F)ccc2[N+](=O)[O-])cc1 [Compound 51, 3-fluoro-6-nitrophenyl 4-(isobutanoylamino)benzoate]	2.6 nM	–
CC(C)(C)C(=O)Nc1ccc(C(=O)Oc2cc(Cl)cc(Cl)c2)cc1 [Compound 8, 3,5-dichlorophenyl 4-(pivaloylamino)benzoate]	6.4 nM	–
CN(C)C(=O)Nc1ccc(C(=O)Oc2cc(Cl)cc(Cl)c2)cc1 [Compound 32, 3,5-dichlorophenyl 4-(3,3-dimethylureido)benzoate]	5.9 nM	–
CC(C)(CC#N)C(=O)Nc1ccc(C(=O)Oc2cc(Cl)cc(Cl)c2)cc1 [Compound 46, 3,5-dichlorophenyl 4-(3-cyano-2,2-dimethylpropanoylamino)benzoate]	6.7 nM	–
O=C(Cc1ccccc1)Nc1ccc(C(=O)Oc2cc(Cl)cc(Cl)c2)cc1 [Compound 9, 3,5-dichlorophenyl 4-(phenylacetylamino)benzoate]	5.3 nM	–
CC(C)(CC(=O)Nc1ccc(C(=O)Oc2cc(Cl)cc(Cl)c2)cc1)C(=O)O [Compound 41, 3,5-dichlorophenyl 4-(3,3-dimethylsuccinylamino)benzoate]	47 nM	–
Cc1ccc([N+](=O)[O-])c(OC(=O)c2ccc(NC(=O)C(C)C)cc2)c1 [Compound 52, 3-methyl-6-nitrophenyl 4-(isobutanoylamino)benzoate]	15 nM	–
CC(C)C(=O)Nc1ccc(C(=O)Oc2cc(F)ccc2F)cc1 [Compound 68, 2,5-difluorophenyl 4-(isobutanoylamino)benzoate]	110 nM	–
CC(C)C(=O)Nc1ccc(C(=O)Oc2cccc(F)c2F)cc1 [Compound 67, 2,3-difluorophenyl 4-(isobutanoylamino)benzoate]	88 nM	–

— EP0475531A1, “Benzoic acid phenylester compounds and elastase inhibiting compositions containing the same” (Asahi Kasei Kogyo Kabushiki Kaisha, priority 1990, dated 1992)
